System: B*0702-transgenic mice
Conditions: mouse, in vivo, sc

## RPRWLDARV
  Average T cell response: 659 SFC/10^6 CD8^+

From publication PMC3872965 (Journal of immunology (Baltimore, Md. : 1950), 2013)
